Paper PMC7315563, “Bioactive fluorenes. Part III: 2,7-dichloro-9H-fluorene-based thiazolidinone and azetidinone analogues as anticancer and antimicrobial against multidrug resistant strains agents” (BMC Chemistry, 2020)
In brackets after ≈: the same amount, converted by molar mass.

What was measured:
[1] = tested on: Acinetobacter baumannii (A. baumannii), multidrug resistant clinical isolate; assay: agar well diffusion assay; assay type: cell-based; conditions: 500 µg/mL of tested compound, 24 h
In short: (§1)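 Multidrug-resistant clinical isolates swabbed on Mueller–Hinton agar at about 1–5 × 10^5 CFU/mL; 0.5 cm wells received 50 μL compound at 500 μg/mL in 1% DMSO. Incubation 24 h, 37 °C for bacteria and C. albicans, 25 °C for Aspergillus; inhibition zone diameter measured in mm.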

[2] = tested on: Escherichia coli (E. coli), multidrug resistant clinical isolate; assay: agar well diffusion assay; assay type: cell-based; conditions: 24 h, 500 µg/mL of tested compound
In short: as §1

[3] = tested on: Klebsiella pneumoniae (K. pneumoniae), multidrug resistant clinical isolate; assay: agar well diffusion assay; assay type: cell-based; conditions: 24 h, 500 µg/mL of tested compound
In short: as §1

[4] = tested on: Pseudomonas aeruginosa (P. aeruginosa), multidrug resistant clinical isolate; assay: agar well diffusion assay; assay type: cell-based; conditions: 24 h, 500 µg/mL of tested compound
In short: as §1

[5] = tested on: Staphylococcus aureus (S. aureus), multidrug resistant clinical isolate; assay: agar well diffusion assay; assay type: cell-based; conditions: Staphylococcus aureus; S. aureus; 500 µg/mL of tested compound; 24 h
In short: as §1

E. coli = assay: MIC by broth microdilution method (resazurin end point); assay type: cell-based; conditions: Escherichia coli, 24 h at 37 °C
Protocol: (§2) Determination of Minimum inhibitory concentrations (MIC) of flourene derivatives was done using broth microdilution method. The procedure involved preparation of twofold dilutions of the fluorene derivatives ranging from (500–7.8 μg/mL) in sterile Mueller–Hinton broth inside the wells of 96-well microplate (Sarstedt, Germany). The inoculums of test strains prepared from fresh overnight cultures were adjusted to 0.5 McFarland standards, which equals to 1–2 × 10^8 CFU/mL for bacteria, the procedure was done according to CLSI 2012 [42]. […] For this assay the positive control agents were vancomycin (range: 0.7–50 μg/mL), gentamicin (range: 0.15–10 μg/mL) and the negative control was 1% DMSO.
(§3) For proper determination of the MIC end point resazurin dye has been used. A stock solution of resazurin sodium salt powder (Titan Biotech) was prepared at 0.02% (wt/vol) in distilled water, sterilized by filtration through a […] filter into a sterile light protected container then stored protected from light at 4 °C for up to 1 week, or at − […] for long term use, then 10–15% resazurin solution of the total volume in wells was added to each well and incubation for 1–4 h at 37 °C was done. A change in color from blue to pink indicates the growth of bacteria, and MIC was defined as the lowest concentration of the drug that prevented this change in color.

P. aeruginosa = assay: as above; assay type: cell-based; conditions: Pseudomonas aeruginosa, 24 h at 37 °C
Protocol: as §2, §3

[6] = tested on: MDA-MB-231 human breast cancer cells; assay: cell viability assay (MTT); assay type: cell-based; conditions: 24 h; for viability at 1 µg/mL: read-out: Validity (%) for sample concentrations (µg/mL) 1; for viability at 10 µg/mL: read-out: Validity (%) for sample concentrations (µg/mL) 10; for viability at 31.25 µg/mL: read-out: Validity (%) for sample concentrations (µg/mL) 31.25; for viability at 62.5 µg/mL: read-out: Validity (%) for sample concentrations (µg/mL) 62.5; for viability at 125 µg/mL: read-out: Validity (%) for sample concentrations (µg/mL) 125; for viability at 250 µg/mL: read-out: Validity (%) for sample concentrations (µg/mL) 250; for viability at 500 µg/mL: read-out: Validity (%) for sample concentrations (µg/mL) 500
In short: (§4)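 Cells were seeded at 5000/well in RPMI-1640 with 10% FBS. The next day they were exposed to fluorene derivatives at 0–500 µg/mL for 24 h. Viability was measured by MTT absorbance at 570 nm.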

[7] = tested on: WI-38 human normal fibroblast cells; assay: cell viability assay (MTT); assay type: cell-based; conditions: 24 h; for viability at 31.25 µg/mL: read-out: Validity (%) for sample concentrations (µg/mL) 31.25; for viability at 62.5 µg/mL: 62.50 µg/mL, read-out: Validity (%) for sample concentrations (µg/mL) 62.50; for viability at 125 µg/mL: read-out: Validity (%) for sample concentrations (µg/mL) 125; for viability at 250 µg/mL: read-out: Validity (%) for sample concentrations (µg/mL) 250; for viability at 500 µg/mL: read-out: Validity (%) for sample concentrations (µg/mL) 500
In short: as §4

[8] = tested on: A549 human lung cancer cells; assay: cell viability assay (MTT); assay type: cell-based; conditions: 24 h; for viability at 1 µg/mL: read-out: Validity (%) for sample concentrations (µg/mL) 1; for viability at 10 µg/mL: read-out: Validity (%) for sample concentrations (µg/mL) 10; for viability at 31.25 µg/mL: read-out: Validity (%) for sample concentrations (µg/mL) 31.25; for viability at 62.5 µg/mL: 62.50 µg/mL, read-out: Validity (%) for sample concentrations (µg/mL) 62.50; for viability at 125 µg/mL: read-out: Validity (%) for sample concentrations (µg/mL) 125; for viability at 250 µg/mL: read-out: Validity (%) for sample concentrations (µg/mL) 250; for viability at 500 µg/mL: read-out: Validity (%) for sample concentrations (µg/mL) 500; for viability at 1000 µg/mL: read-out: Validity (%) for sample concentrations (µg/mL) 1000
[9] = tested on: methicillin-resistant Staphylococcus aureus (MRSA); assay: agar well diffusion assay; assay type: cell-based; conditions: Staphylococcus aureus, 500 µg/mL of tested compound, 24 h
In short: as §1

MRSA = assay: MIC by broth microdilution method (resazurin end point); assay type: cell-based; conditions: Staphylococcus aureus, 24 h at 37 °C, read-out: MIC
Protocol: as §2, §3

S. aureus = assay: as above; assay type: cell-based; conditions: Staphylococcus aureus; S. aureus; 24 h at 37 °C; read-out: MIC
Protocol: as §2, §3

| MIC (E. coli) | IC50 [6] | SMILES | zone of inhibition at 500 µg/mL [2] | zone of inhibition at 500 µg/mL [4] | zone of inhibition at 500 µg/mL [5] | viability at 1 µg/mL [6] | viability at 10 µg/mL [6] | viability at 31.25 µg/mL [6] | viability at 62.5 µg/mL [6] | viability at 125 µg/mL [6] | viability at 250 µg/mL [6] | viability at 500 µg/mL [6] | viability at 31.25 µg/mL [7] | viability at 62.5 µg/mL [7] | viability at 125 µg/mL [7] | viability at 250 µg/mL [7] | viability at 500 µg/mL [7] | IC50 [7] | viability at 1 µg/mL [8] | viability at 10 µg/mL [8] | further results |
| --- | --- | --- | --- | --- | --- | --- | --- | --- | --- | --- | --- | --- | --- | --- | --- | --- | --- | --- | --- | --- | --- |
| 31.2 µg/mL (≈ 56.9 µM) | > 500 µg/mL | O=C1C(Cl)C(c2ccnc3ccccc23)N1c1nc(-c2cc(Cl)cc3c2-c2ccc(Cl)cc2C3)cs1 (centres unmarked) [6n, 3-chloro-1-(4-(2,7-dichloro-9H-fluoren-4-yl)thiazol-2-yl)-4-(quinolin-4-yl)azetidin-2-one] | 19 mm | 13 mm | 9 mm | 96.2% | 89.5% | 86.8% | 81.3% | 73.2% | 67.1% | 59.2% | 98.6% | 85.9% | 53.2% | 43.3% | 39.8% | 212 µg/mL (≈ 386 µM) | 93.3% | 83.6% | zone of inhibition at 500 µg/mL [1]: 5 mm; zone of inhibition at 500 µg/mL [3]: 5 mm; MIC (P. aeruginosa): 62.5 µg/mL (≈ 114 µM); viability at 31.25 µg/mL [8]: 67.9%; viability at 62.5 µg/mL [8]: 64.2%; viability at 125 µg/mL [8]: 52.7%; viability at 250 µg/mL [8]: 43.2%; viability at 500 µg/mL [8]: 39.1%; viability at 1000 µg/mL [8]: 36.3%; IC50 [8]: 159 µg/mL (≈ 290 µM); melting point: 175 to 177 °C |
| 31.2 µg/mL (≈ 57.5 µM) | > 500 µg/mL | COc1cc(C2C(Cl)C(=O)N2c2nc(-c3cc(Cl)cc4c3-c3ccc(Cl)cc3C4)cs2)ccc1O (centres unmarked) [6h, 3-chloro-1-(4-(2,7-dichloro-9H-fluoren-4-yl)thiazol-2-yl)-4-(4-hydroxy-3-methoxyphenyl)azetidin-2-one] | 22 mm | 8 mm | 12 mm | 94.3% | 90.4% | 85.8% | 77.8% | 73.6% | 68.5% | 65.8% | 85% | 70.6% | 60.4% | 51.8% | 49.4% | 487 µg/mL (≈ 895 µM) | 89.5% | 80.9% | zone of inhibition at 500 µg/mL [3]: 3 mm; zone of inhibition at 500 µg/mL [9]: 15 mm; MIC (MRSA): 31.2 µg/mL (≈ 57.5 µM); MIC (S. aureus): 62.5 µg/mL (≈ 115 µM); viability at 31.25 µg/mL [8]: 79%; viability at 62.5 µg/mL [8]: 75.8%; viability at 125 µg/mL [8]: 63.5%; viability at 250 µg/mL [8]: 37.9%; viability at 500 µg/mL [8]: 33%; viability at 1000 µg/mL [8]: 30.3%; IC50 [8]: 192 µg/mL (≈ 353 µM); melting point: 95 to 97 °C |
| 31.2 µg/mL (≈ 64.2 µM) | > 500 µg/mL | O=C1C(Cl)C(c2ccc[nH]2)N1c1nc(-c2cc(Cl)cc3c2-c2ccc(Cl)cc2C3)cs1 (centres unmarked) [6l, 3-Chloro-1-(4-(2,7-dichloro-9H-fluoren-4-yl)thiazol-2-yl)-4-(1H-pyrrol-2-yl)azetidin-2-one] | 22 mm | 8 mm | 15 mm | 96.9% | 90.4% | 85.5% | 71.9% | 69.8% | 66.7% | 60.9% | 94% | 76.4% | 70.2% | 52.5% | 39% | 350 µg/mL (≈ 719 µM) | 85% | 72.2% | zone of inhibition at 500 µg/mL [9]: 15 mm; MIC (MRSA): 31.2 µg/mL (≈ 64.2 µM); MIC (P. aeruginosa): 125 µg/mL (≈ 257 µM); MIC (S. aureus): 31.2 µg/mL (≈ 64.2 µM); viability at 31.25 µg/mL [8]: 58.1%; viability at 62.5 µg/mL [8]: 53.6%; viability at 125 µg/mL [8]: 43.1%; viability at 250 µg/mL [8]: 34%; viability at 500 µg/mL [8]: 30.3%; viability at 1000 µg/mL [8]: 27.9%; IC50 [8]: 95 µg/mL (≈ 195 µM); melting point: 105 to 107 °C |
